Results from PubChem BioAssay (NCI).
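Briefly, cells in 96-well plates were exposed to five compound concentrations for 48 h, and endpoints were estimated by linear interpolation. TGI denotes the concentration required for complete inhibition of growth.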

Columns and labels:
Experiment in all cases: inhibition of tumour cell growth, NCI panel, 48 h
HCT-116 colon = test system: HCT-116 colon
SF-539 CNS = test system: SF-539 CNS
SN12C renal = test system: SN12C renal
SNB-75 CNS = test system: SNB-75 CNS
K-562 leukemia = test system: K-562 leukemia
CAKI-1 renal = test system: CAKI-1 renal
SK-MEL-2 melanoma = test system: SK-MEL-2 melanoma
SF-268 CNS = test system: SF-268 CNS
HCC-2998 colon = test system: HCC-2998 colon
SK-MEL-5 melanoma = test system: SK-MEL-5 melanoma
UACC-62 melanoma = test system: UACC-62 melanoma
SK-MEL-28 melanoma = test system: SK-MEL-28 melanoma
ACHN renal = test system: ACHN renal
T-47D breast = test system: T-47D breast
EKVX NSCLC = test system: EKVX NSCLC
M14 melanoma = test system: M14 melanoma
786-0 renal = test system: 786-0 renal
PC-3 prostate = test system: PC-3 prostate
A549 NSCLC = test system: A549 NSCLC
NCI-H460 lung = test system: NCI-H460 lung
DU-145 prostate = test system: DU-145 prostate
HCT-15 colon = test system: HCT-15 colon
SNB-19 CNS = test system: SNB-19 CNS
LOX IMVI melanoma = test system: LOX IMVI melanoma
HS 578T breast = test system: HS 578T breast
HOP-62 NSCLC = test system: HOP-62 NSCLC
NCI-H522 lung = test system: NCI-H522 lung
UACC-257 melanoma = test system: UACC-257 melanoma
KM12 colon = test system: KM12 colon
BT-549 breast = test system: BT-549 breast
RPMI-8226 leukemia = test system: RPMI-8226 leukemia
COLO 205 colon = test system: COLO 205 colon
NCI-H226 lung = test system: NCI-H226 lung
SW-620 colon = test system: SW-620 colon
SF-295 CNS = test system: SF-295 CNS
OVCAR-5 ovarian = test system: OVCAR-5 ovarian
MDA-MB-231 breast = test system: MDA-MB-231 breast
A498 renal = test system: A498 renal
NCI/ADR-RES ovarian = test system: NCI/ADR-RES ovarian
CCRF-CEM leukemia = test system: CCRF-CEM leukemia
MALME-3M melanoma = test system: MALME-3M melanoma
MCF7 breast = test system: MCF7 breast
IGROV1 ovarian = test system: IGROV1 ovarian
MDA-MB-435 = test system: MDA-MB-435
OVCAR-8 ovarian = test system: OVCAR-8 ovarian
SR leukemia = test system: SR leukemia
HOP-92 NSCLC = test system: HOP-92 NSCLC
HT29 colon = test system: HT29 colon
MDA-N = test system: MDA-N
MOLT-4 leukemia = test system: MOLT-4 leukemia
TK-10 renal = test system: TK-10 renal
OVCAR-3 ovarian = test system: OVCAR-3 ovarian
SK-OV-3 ovarian = test system: SK-OV-3 ovarian
OVCAR-4 ovarian = test system: OVCAR-4 ovarian
U251 CNS = test system: U251 CNS
HL-60(TB) leukemia = test system: HL-60(TB) leukemia
NCI-H23 lung = test system: NCI-H23 lung
RXF 393 renal = test system: RXF 393 renal

Measured: TGI

CC1=C/C(=N\NC(N)=S)C(C(O)(C(F)(F)F)C(F)(F)F)C(C)(C)C1 (stereo not drawn)
> 10 µM: HCT-116 colon | SF-539 CNS | SN12C renal | SNB-75 CNS | K-562 leukemia | CAKI-1 renal | SK-MEL-2 melanoma | SF-268 CNS | HCC-2998 colon | SK-MEL-5 melanoma | UACC-62 melanoma | SK-MEL-28 melanoma | ACHN renal | T-47D breast | EKVX NSCLC | M14 melanoma | 786-0 renal | PC-3 prostate | A549 NSCLC | NCI-H460 lung | DU-145 prostate | HCT-15 colon | SNB-19 CNS | LOX IMVI melanoma | HS 578T breast | HOP-62 NSCLC | NCI-H522 lung | UACC-257 melanoma | KM12 colon | BT-549 breast | RPMI-8226 leukemia | COLO 205 colon | NCI-H226 lung | SW-620 colon | SF-295 CNS | OVCAR-5 ovarian | MDA-MB-231 breast | A498 renal | NCI/ADR-RES ovarian | CCRF-CEM leukemia | MALME-3M melanoma | MCF7 breast | IGROV1 ovarian | MDA-MB-435 | OVCAR-8 ovarian | SR leukemia | HOP-92 NSCLC | HT29 colon | MDA-N | MOLT-4 leukemia | TK-10 renal | OVCAR-3 ovarian | SK-OV-3 ovarian | OVCAR-4 ovarian | U251 CNS | HL-60(TB) leukemia | NCI-H23 lung | RXF 393 renal
